{
  "source": "patent US5739130A",
  "about": "“Heterotricyclic derivatives, process for their preparation and pharmaceutical compositions containing them” (Fujisawa Pharmaceutical Co., Ltd., priority 1992, dated 1998)",
  "key": {"[1]": {"system": "anti-single strand DNA antibodies", "assay": "Inhibitory activity on the production of an anti-DNA-antibody (GVH disease mice, ELISA)", "type": "in vivo, (57BL/6×DBA/2)F1", "details": "32 mg/kg orally once a day for 8 weeks, measured 4 weeks after last cell injection, P<0.05 vs control", "method": "(§1) Inhibitory activity on the production of an anti-DNA-antibody and on the leakage of a proteinuria\n(§2) Six weeks old female (57BL/6×DBA/2)F1 and DBA/2 mice were used. Graft-versus-host (GVH) disease was induced in (57BL/6×DBA/2)F1mice with two injections of DBA/2 spleen cells given 5 days apart. Each injection contained 5×10^7 cells. From 3 days after the second cell injection, drug was administered orally once a day for 8 weeks.\n(§3) As an indication of autoimmune disease, 4 weeks after the last cell injection anti-single strand DNA antibodies were measured by enzyme-linkedimmunosorbent assay (ELISA) using the procedure reported by T. Fujitsu et al. (International J. Immunopharmacol, 8 897 (1986)). To assess the renal disease, 8 weeks after the last cell injection proteinuria were measured. The concentration of serum albumin in the urine was determined by the single radial immunodiffusion method using rabbit anti-mouse serum albumin antiserum. Ten mice were used per group. The activity of the compound was expressed as a % inhibition of anti-DNA antibody and proteinuria."}, "[2]": {"system": "proteinuria (serum albumin in the urine)", "assay": "Inhibitory activity on the leakage of a proteinuria (GVH disease mice, serum albumin in urine)", "type": "in vivo, (57BL/6×DBA/2)F1", "details": "32 mg/kg orally once a day for 8 weeks, measured 8 weeks after last cell injection, P<0.01 vs control", "method": "as §1, §2, §3"}, "[3]": {"system": "B16 melanoma cells", "assay": "Inhibitory activity on B16 melanoma metastases", "type": "in vivo, Mouse", "details": "C57BL/6 mice, day 16, P<0.01 vs control", "method": "Inhibitory activity on B16 melanoma metastases\nAccording to the experimental schedule as exemplified below, the experiment was carried out.\nMouse B16 melanoma cells (5×10^5 cells) were inoculated intravenously to 8 weeks old female (C57BL/6) mice on day 0.\nThe animals were sacrificed at day 16 and tumor colonies established in lung were counted in a dissection microscope.\nThe test compound was administered orally once a day.\nEffects of test compound on tumors were assessed by the numbers of colonies compared to control. [drawing 8] 2. Test compound"}},
  "data": [
    {"smiles": "COc1cc2c3c(c1)c(O)c(C(=O)N1CCc4ccccc41)c(=O)n3CCO2", "note": "[2,3-Dihydro-7-hydroxy-9-methoxy-6-(1-indolinylcarbonyl)-5-oxo-5H-pyrido[1,2,3-de]-1,4-benzoxazine]", "values": [
      {"measurement": "Inhibition (%) anti-DNA antibody", "setting": "[1]", "value": 86, "unit": "%"},
      {"measurement": "Inhibition (%) proteinuria", "setting": "[2]", "value": 99, "unit": "%"},
      {"measurement": "inhibition (%) of tumor colonies in lung", "setting": "[3]; 32 mg/kg orally once a day", "value": 36, "unit": "%"},
      {"measurement": "inhibition (%) of tumor colonies in lung", "setting": "[3]; 100 mg/kg orally once a day", "value": 59, "unit": "%"}
    ]}
  ]
}
